The values that follow come from US12084472B2 (Ardelyx, Inc., priority 2015, dated 2024).

Structures are written as SMILES. Some results are limits rather than exact numbers.

This experiment concerns the target T1, human TGR5 (Homo sapiens, UniProt Q8TDU6).
T1 construct: expressed in transfected cells; host or cells: HEK293
T1 sequence (Q8TDU6 1-330): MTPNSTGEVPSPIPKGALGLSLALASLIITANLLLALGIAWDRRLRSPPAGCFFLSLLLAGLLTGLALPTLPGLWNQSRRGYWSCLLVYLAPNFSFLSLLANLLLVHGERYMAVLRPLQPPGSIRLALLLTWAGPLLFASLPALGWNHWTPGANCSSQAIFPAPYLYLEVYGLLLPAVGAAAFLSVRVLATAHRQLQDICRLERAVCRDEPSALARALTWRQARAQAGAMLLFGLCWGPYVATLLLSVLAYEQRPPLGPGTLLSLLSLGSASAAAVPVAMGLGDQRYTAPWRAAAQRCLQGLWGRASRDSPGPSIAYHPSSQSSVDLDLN
Put plainly: Cell-based TGR5 assay (cAMP generation, HTRF). Particulars: HEK293 cells stably transfected with human TGR5; cAMP by HTRF; 30 minutes at 37° C.; read-out: pEC50 Human TGR5 (converted). The method in brief: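 Read-out was HTRF detection of cAMP, converted to concentration via a standard curve and fitted (3-parameter logistic) for pEC50 and maximal response. Agonist stimulation used HEK293 cells stably transfected with human TGR5, incubated 30 min at 37° C in IBMX-containing buffer at 0.05 nM to 10 μM compound.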
(TR-FRET usually uses a lanthanide donor and a delayed reading to cut background.)
On to `Cc1cc(COC2(c3cnccc3-c3ccccc3OC3CC3)CC2)c(Cl)cc1CCCCNC(=O)N1CCN(C[C@H](O)[C@@H](O)[C@@H](O)[C@H](O)CO)CC1` [Compound I-114, N-{4-[5-chloro-4-({1-[4-(2-cyclopropoxyphenyl)pyridin-3-yl]cyclopropoxy}methyl)-2-methylphenyl]butyl}-4-[(2S,3R,4S,5R)-2,3,4,5,6-pentahydroxyhexyl]piperazine-1-carboxamide], for which the EC50 was under 100 nM. With `Cc1cc(COC2(c3cnccc3-c3ccccc3OC3CC3)CC2)c(Cl)cc1CCCCN(C)C(=O)NC[C@H](O)[C@@H](O)[C@H](O)[C@H](O)CO` [Compound I-115, 1-{4-[5-chloro-4-({1-[4-(2-cyclopropoxyphenyl)pyridin-3-yl]cyclopropoxy}methyl)-2-methylphenyl]butyl}-1-methyl-3-[(2S,3R,4R,5R)-2,3,4,5,6-pentahydroxyhexyl]urea] the figure was under 100 nM. To `COCCN(CCCCc1cc(Cl)c(COC2(c3cnccc3-c3ccccc3OC3CC3)CC2)cc1C)C(=O)NC[C@H](O)[C@@H](O)[C@H](O)[C@H](O)CO` [Compound I-116, 1-{4-[5-chloro-4-({1-[4-(2-cyclopropoxyphenyl)pyridin-3-yl]cyclopropoxy}methyl)-2-methylphenyl]butyl}-1-(2-methoxyethyl)-3-[(2S,3R,4R,5R)-2,3,4,5,6-pentahydroxyhexyl]urea] belongs under 100 nM; to `Cc1cc(COC2(c3cnccc3-c3ccccc3OC3CC3)CC2)c(Cl)cc1CCCCN(CCOCCO)C(=O)NC[C@H](O)[C@@H](O)[C@H](O)[C@H](O)CO` [Compound I-117, 1-{4-[5-chloro-4-({1-[4-(2-cyclopropoxyphenyl)pyridin-3-yl]cyclopropoxy}methyl)-2-methylphenyl]butyl}-1-[2-(2-hydroxyethoxy)ethyl]-3-[(2S,3R,4R,5R)-2,3,4,5,6-pentahydroxyhexyl]urea], under 100 nM. In the case of `Cc1cc(COC2(c3cnccc3-c3ccccc3OC3CC3)CC2)c(Cl)cc1CCCCN(CCCCCO)C(=O)NC[C@H](O)[C@@H](O)[C@H](O)[C@H](O)CO` [Compound I-118, 1-{4-[5-chloro-4-({1-[4-(2-cyclopropoxyphenyl)pyridin-3-yl]cyclopropoxy}methyl)-2-methylphenyl]butyl}-1-(5-hydroxypentyl)-3-[(2S,3R,4R,5R)-2,3,4,5,6-pentahydroxyhexyl]urea], the EC50 was under 100 nM. `Cc1cc(COC2(c3cnccc3-c3ccccc3OC3CC3)CC2)c(Cl)cc1CCCCNC(=O)N[C@H](CCCCN)C(=O)O` [Compound I-119, (2R)-6-amino-2-[({4-[5-chloro-4-({1-[4-(2-cyclopropoxyphenyl)pyridin-3-yl]cyclopropoxy}methyl)-2-methylphenyl]butyl}carbamoyl)amino]hexanoic acid]: the EC50 is 126 to 1000 nM. With `O=C(CCCCc1cc(Cl)c(COC2(c3cnccc3-c3ccccc3OC3CC3)CC2)cc1Cl)N(Cc1ccccc1)C[C@@H](O)[C@H](O)[C@H](O)[C@H](O)CO` [Compound I-120, N-benzyl-5-(2,5-dichloro-4-((1-(4-(2-cyclopropoxyphenyl)pyridin-3-yl)cyclopropoxy)methyl)phenyl)-N-((2R,3S,4R,5R)-2,3,4,5,6-pentahydroxyhexyl)pentanamide] the figure was 126 to 1000 nM. `CN(CCO[C@@H]1O[C@H](CO)[C@@H](O)[C@H](O)[C@H]1O)C(=O)CCCCc1cc(Cl)c(COC2(c3cnccc3-c3ccccc3OC3CC3)CC2)cc1Cl` [Compound I-121, 5-(2,5-dichloro-4-((1-(4-(2-cyclopropoxyphenyl)pyridin-3-yl)cyclopropoxy)methyl)phenyl)-N-methyl-N-(2-(((2R,3R,4S,5S,6R)-3,4,5-trihydroxy-6-(hydroxymethyl)tetrahydro-2H-pyran-2-yl)oxy)ethyl)pentanamide]: the EC50 is under 100 nM.

`O=C(CCCCc1cc(Cl)c(COC2(c3cnccc3-c3ccccc3OC3CC3)CC2)cc1Cl)N(CC(O)CO)C[C@H](O)[C@@H](O)[C@H](O)[C@H](O)CO` (stereo partly drawn) [Compound I-122, 5-(2,5-dichloro-4-((1-(4-(2-cyclopropoxyphenyl)pyridin-3-yl)cyclopropoxy)methyl)phenyl)-N-(2,3-dihydoxypropyl)-N-((2S,3R,4R,5R)-2,3,4,5,6-pentahydroxyhexyl) pentanamide]: the EC50 is under 100 nM. With `CC[C@@H](O)CN(C[C@H](O)[C@@H](O)[C@H](O)[C@H](O)CO)C(=O)CCCCc1cc(Cl)c(COC2(c3cnccc3-c3ccccc3OC3CC3)CC2)cc1Cl` [Compound I-123, 5-[2,5-dichloro-4-({1-[4-(2-cyclopropoxyphenyl)pyridin-3-yl]cyclopropoxy}methyl)phenyl]-N-[(2R)-2-hydroxybutyl]-N-[(2S,3R,4R,5R)-2,3,4,5,6-pentahydroxyhexyl]pentanamide] the figure was under 100 nM; with `COC[C@H](O)CN(C[C@H](O)[C@@H](O)[C@H](O)[C@H](O)CO)C(=O)CCCCc1cc(Cl)c(COC2(c3cnccc3-c3ccccc3OC3CC3)CC2)cc1Cl` [Compound I-124, 5-[2,5-dichloro-4-({1-[4-(2-cyclopropoxyphenyl)pyridin-3-yl]cyclopropoxy}methyl)phenyl]-N-[(2R)-2-hydroxy-3-methoxypropyl]-N-[(2S,3R,4R,5R)-2,3,4,5,6-pentahydroxyhexyl]pentanamide], under 100 nM.

For the molecule `COC[C@@H](O)CN(C[C@H](O)[C@@H](O)[C@H](O)[C@H](O)CO)C(=O)CCCCc1cc(Cl)c(COC2(c3cnccc3-c3ccccc3OC3CC3)CC2)cc1Cl` [Compound I-125, 5-[2,5-dichloro-4-({1-[4-(2-cyclopropoxyphenyl)pyridin-3-yl]cyclopropoxy}methyl)phenyl]-N-[(2S)-2-hydroxy-3-methoxypropyl]-N-[(2S,3R,4R,5R)-2,3,4,5,6-pentahydroxyhexyl]pentanamide], the EC50 was under 100 nM. With `O=C(CCCCc1cc(Cl)c(COC2(c3cnccc3-c3ccccc3OC3CC3)CC2)cc1Cl)N(Cc1ccccc1)C[C@H](O)[C@@H](O)[C@H](O)[C@H](O)CO` [Compound I-126, N-benzyl-5-(2,5-dichloro-4((1-(4-(2-cyclopropoxyphenyl)pyridin-3-yl)cyclopropoxy)methyl)phenyl)-N-((2S,3R,4R,5R)-2,3,4,5,6-pentahydroxyhexyl)pentanamide] the figure was 126 to 1000 nM. Turning to `COCCN(C[C@H](O)[C@@H](O)[C@H](O)[C@H](O)CO)C(=O)CCCCc1cc(Cl)c(COC2(c3cnccc3-c3ccccc3OC3CC3)CC2)cc1Cl` [Compound I-127, 5-[2,5-dichloro-4-({1-[4-(2-cyclopropoxyphenyl)pyridin-3-yl]cyclopropoxy}methyl)phenyl]-N-(2-methoxyethyl)-N-[(2S,3R,4R,5R)-2,3,4,5,6-pentahydroxyhexyl]pentanamide], the EC50 was under 100 nM. For the molecule `CC(C)N(C[C@H](O)[C@@H](O)[C@H](O)[C@H](O)CO)C(=O)CCCCc1cc(Cl)c(COC2(c3cnccc3-c3ccccc3OC3CC3)CC2)cc1Cl` [Compound I-128, 5-[2,5-dichloro-4-({1-[4-(2-cyclopropoxyphenyl)pyridin-3-yl]cyclopropoxy}methyl)phenyl]-N-[(2S,3R,4R,5R)-2,3,4,5,6-pentahydroxyhexyl]-N-(propan-2-yl)pentanamide], the EC50 is under 100 nM. To `CCCN(C[C@H](O)[C@@H](O)[C@H](O)[C@H](O)CO)C(=O)CCCCc1cc(Cl)c(COC2(c3cnccc3-c3ccccc3OC3CC3)CC2)cc1Cl` [Compound I-129, 5-[2,5-dichloro-4-({1-[4-(2-cyclopropoxyphenyl)pyridin-3-yl]cyclopropoxy}methyl)phenyl]-N-[(2S,3R,4R,5R)-2,3,4,5,6-pentahydroxyhexyl]-N-propylpentanamide] belongs under 100 nM.

Consider `CS(=O)(=O)CCN(C[C@H](O)[C@@H](O)[C@H](O)[C@H](O)CO)C(=O)CCCCc1cc(Cl)c(COC2(c3cnccc3-c3ccccc3OC3CC3)CC2)cc1Cl` [Compound I-130, 5-[2,5-dichloro-4-({1-[4-(2-cyclopropoxyphenyl)pyridin-3-yl]cyclopropoxy}methyl)phenyl]-N-(2-methanesulfonylethyl)-N-[(2S,3R,4R,5R)-2,3,4,5,6-pentahydroxyhexyl]pentanamide], for which the EC50 is under 100 nM.

On to `O=C(CCCCc1cc(Cl)c(COC2(c3cnccc3-c3ccccc3OC3CC3)CC2)cc1Cl)N(C[C@H](O)[C@@H](O)[C@H](O)[C@H](O)CO)C1CCOCC1` [Compound I-131, 5-[2,5-dichloro-4-({1-[4-(2-cyclopropoxyphenyl)pyridin-3-yl]cyclopropoxy}methyl)phenyl]-N-(oxan-4-yl)-N-[(2S,3R,4R,5R)-2,3,4,5,6-pentahydroxyhexyl]pentanamide], for which the EC50 was under 100 nM. To `Cc1cc(COC2(c3cnccc3-c3ccccc3OC3CC3)CC2)c(Cl)cc1CCCCN(C)C(=O)[C@@H](O)[C@@H](O)[C@H](O)[C@@H](O)CO` [Compound I-132, (2S,3S,4R,5S)-N-{4-[5-chloro-4-({1-[4-(2-cyclopropoxyphenyl)pyridin-3-yl]cyclopropoxy}methyl)-2-methylphenyl]butyl}-2,3,4,5,6-pentahydroxy-N-methylhexanamide] belongs under 100 nM; to `COc1ccccc1-c1ccncc1C1(NCc2cc(Cl)c(CCCCC(=O)NC[C@H](O)[C@@H](O)[C@H](O)[C@H](O)CO)cc2Cl)CC1` [Compound I-133, 5-{2,5-dichloro-4-[({1-[4-(2-methoxyphenyl)pyridin-3-yl]cyclopropyl}amino)methyl]phenyl}-N-[(2S,3R,4R,5R)-2,3,4,5,6-pentahydroxyhexyl]pentanamide], 126 to 1000 nM.
